US4933157A, “Radioiodinated arylaliphatic ether analogues of cholesterol” (The University of Michigan, priority 1988, dated 1990)
Read-outs that look alike come from different tables or passages of the source.

Assays:
[1] = in vivo; cited from earlier work
[2] = Polyacrylamide gel electrophoresis of rat plasma (plasma level studies); type: in vivo, female Sprague Dawley rats
[3] = Tissue distribution of radioactivity following IV administration to male guinea pigs; type: in vivo, male Hartley guinea pigs
Method: (§1) The labelled compounds ([…] ^125 I) were administered intravenously in a 2% Tween-20-saline vehicle. At various times following administration, the animals were sacrificed, and selected tissue samples were removed. The tissue samples were weighed and placed in cellulose acetate capsules. The radioactivity was then counted (85%) efficiency using a well scintillation counter (Searle 1185). The results from selected tissue samples are shown below in Tables 1 and 2. The tissue distribution of the selected cholesteryl ether is expressed as percent Kg dose per g of tissue after 30 minutes (Table 1) and after 24 hours (Table 2).

[4] = Method: Female Sprague Dawley rats were injected with a radio-iodinated arylaliphatic cholesteryl ether analogue (^125 I) solubilized in a suitable transport agent, such as 2% Tween 20-saline. After a predetermined time period, blood samples were drawn from the rats. The plasma was separated from the red blood cells and mixed with a suitable dye (Sudan Black or Sudan Blue). The plasma samples were then subjected to polyacrylamide gel electrophoresis to separate the various fractions. The radioactivity of the various fractions were measured with a gamma counter. […] The data is expressed as a percent of total radioactivity in the gel.
Guinea pigs have a greater concentration of low density lipoproteins in their blood plasma than rats.

[5] = Tissue distribution of radioactivity following IV administration of radioiodinated cholesteryl ethers to female rats; type: in vivo, female Sprague Dawley rats
Method: as §1

Structure (SMILES) | Gel fraction: Albumin ([2]; 30 minutes) | Gel fraction: Below Alb ([2]; 30 minutes) | Gel fraction: HDL Band (high density lipoproteins) ([2]; 30 minutes) | Gel fraction: LDL Band (low density lipoproteins) ([2]; 30 minutes) | Gel fraction: Stacking Gel ([2]; 30 minutes) | Gel fraction: Albumin ([2]; 24 hours) | Gel fraction: Below Alb ([2]; 24 hours) | Gel fraction: HDL Band ([2]; 24 hours) | Gel fraction: Stacking Gel ([2]; 24 hours) | Tissue distribution of radioactivity: Adrenal ([5]; 30 minutes) | Tissue distribution of radioactivity: Blood ([5]; 30 minutes) | Tissue distribution of radioactivity: Liver ([5]; 30 minutes) | Tissue distribution of radioactivity: Ovary ([5]; 30 minutes) | Tissue distribution of radioactivity: Thyroid ([5]; 30 minutes) | Tissue distribution of radioactivity: Adrenal ([5]; 24 hours) | Tissue distribution of radioactivity: Blood ([5]; 24 hours) | Tissue distribution of radioactivity: Liver ([5]; 24 hours) | Tissue distribution of radioactivity: Ovary ([5]; 24 hours) | Tissue distribution of radioactivity: Thyroid ([5]; 24 hours) | further results
CC(C)CCC[C@@H](C)[C@H]1CC[C@H]2[C@@H]3C[C@@H](C[131I])C4=C(CC[C@H](O)C4)[C@H]3CC[C@]12C [NP-59, 6-b-iodomethyl-19-norcholest-5[10]en-3b-ol] |  |  |  |  |  |  |  |  |  |  |  |  |  |  |  |  |  |  |  | metabolic loss of iodine and accumulation in the thyroid [1]: subject to metabolic loss of iodine and resulting accumulation of this iodine in the thyroid; uptake into the adrenal glands [1]: extremely slow
CC(C)CCC[C@@H](C)[C@H]1CC[C@H]2[C@@H]3CC=C4C[C@@H](OCc5cccc([125I])c5)CC[C@]4(C)[C@H]3CC[C@]12C [m-Iodobenzyl, m-iodobenzyl cholesteryl ether] | 0.3 ± 0.1 % OF TOTAL RADIOACTIVITY IN GEL | 0.0 ± 0.0 % OF TOTAL RADIOACTIVITY IN GEL | 53.3 ± 2.2 % OF TOTAL RADIOACTIVITY IN GEL | 41.0 ± 3.5 % OF TOTAL RADIOACTIVITY IN GEL | 5.4 ± 2.5 % OF TOTAL RADIOACTIVITY IN GEL | 1.1 ± 0.2 % OF TOTAL RADIOACTIVITY IN GEL | 0.5 ± 0.1 % OF TOTAL RADIOACTIVITY IN GEL | 45.7 ± 3.2 % OF TOTAL RADIOACTIVITY IN GEL | 21.6 ± 5.8 % OF TOTAL RADIOACTIVITY IN GEL | 1.347 ± 0.289 % KG DOSE/G OF TISSUE | 0.985 ± 0.127 % KG DOSE/G OF TISSUE | 1.414 ± 0.176 % KG DOSE/G OF TISSUE | 0.635 ± 0.036 % KG DOSE/G OF TISSUE | 0.133 ± 0.018 % KG DOSE/G OF TISSUE | 3.755 ± 0.362 % KG DOSE/G OF TISSUE | 0.070 ± 0.006 % KG DOSE/G OF TISSUE | 2.607 ± 0.072 % KG DOSE/G OF TISSUE | 1.924 ± 0.301 % KG DOSE/G OF TISSUE | 1.307 ± 0.150 % KG DOSE/G OF TISSUE | Tissue distribution of radioactivity: Adrenal ([3]; 30 min): 0.360 ± 0.019 % KG DOSE/G OF TISSUE; Tissue distribution of radioactivity: Blood ([3]; 30 min): 0.799 ± 0.041 % KG DOSE/G OF TISSUE; Tissue distribution of radioactivity: Liver ([3]; 30 min): 0.643 ± 0.044 % KG DOSE/G OF TISSUE; Tissue distribution of radioactivity: Testes ([3]; 30 min): 0.025 ± 0.002 % KG DOSE/G OF TISSUE; Tissue distribution of radioactivity: Thyroid ([3]; 30 min): 0.039 ± 0.002 % KG DOSE/G OF TISSUE; Tissue distribution of radioactivity: Adrenal ([3]; 24 hr): 7.861 ± 0.656 % KG DOSE/G OF TISSUE; Tissue distribution of radioactivity: Blood ([3]; 24 hr): 0.158 ± 0.020 % KG DOSE/G OF TISSUE; Tissue distribution of radioactivity: Liver ([3]; 24 hr): 2.023 ± 0.147 % KG DOSE/G OF TISSUE; Tissue distribution of radioactivity: Testes ([3]; 24 hr): 0.043 ± 0.010 % KG DOSE/G OF TISSUE; Tissue distribution of radioactivity: Thyroid ([3]; 24 hr): 1.546 ± 0.279 % KG DOSE/G OF TISSUE; Gel fraction: LDL Band ([4]; guinea pig plasma, IV, 24 hr): 72.2 ± 2.0 % OF TOTAL RADIOACTIVITY IN GEL; dose associated with the low density lipoproteins ([4]; guinea pig, in vivo): greater than 70 % of the dose
CC(C)CCC[C@@H](C)[C@H]1CC[C@H]2[C@@H]3CC=C4C[C@@H](OCCCCCCCCCCCCc5cccc([125I])c5)CC[C@]4(C)[C@H]3CC[C@]12C [m-Iodophenyldodecyl, 12-(m-iodophenyl)dodecyl cholesteryl ether] | 1.1 ± 0.2 % OF TOTAL RADIOACTIVITY IN GEL | 0.5 ± 0.1 % OF TOTAL RADIOACTIVITY IN GEL | 45.7 ± 3.2 % OF TOTAL RADIOACTIVITY IN GEL | 31.2 ± 4.0 % OF TOTAL RADIOACTIVITY IN GEL | 21.6 ± 5.8 % OF TOTAL RADIOACTIVITY IN GEL | 3.4 ± 0.7 % OF TOTAL RADIOACTIVITY IN GEL | 4.9 ± 1.3 % OF TOTAL RADIOACTIVITY IN GEL | 66.2 ± 2.6 % OF TOTAL RADIOACTIVITY IN GEL | 11.6 ± 1.3 % OF TOTAL RADIOACTIVITY IN GEL | 1.307 ± 0.177 % KG DOSE/G OF TISSUE | 1.250 ± 0.067 % KG DOSE/G OF TISSUE | 0.829 ± 0.121 % KG DOSE/G OF TISSUE | 0.936 ± 0.136 % KG DOSE/G OF TISSUE | 0.486 ± 0.085 % KG DOSE/G OF TISSUE | 3.063 ± 0.305 % KG DOSE/G OF TISSUE | 0.085 ± 0.002 % KG DOSE/G OF TISSUE | 1.779 ± 0.247 % KG DOSE/G OF TISSUE | 4.528 ± 0.816 % KG DOSE/G OF TISSUE | 6.047 ± 0.760 % KG DOSE/G OF TISSUE | Gel fraction: LDL Band ([2]; 24 hours): 14.0 ± 1.0 % OF TOTAL RADIOACTIVITY IN GEL
